Measured values: patent publication US7816522B2, “Triazolone derivatives” (Eisai Co., Ltd., priority 2006, dated 2010)
Where a name gives a salt, the structure may show the parent alone.

Molecular target: T1, human clotting factor VIIa (Homo sapiens, UniProt P08709)
T1 construct: a human clotting factor VIIa (hereinafter, “Factor VIIa”) purified sample; purchased Enzyme Research Laboratories HFVIIa
Assay: Inhibitory activity against clotting factor VIIa (chromogenic substrate Spectrozyme FVIIa, TF/Factor VIIa enzyme solution)
Type: biochemical
Details: human Factor VIIa 5 nmol/L with human TF 10 nmol/L, room temperature 40 minutes, 405 nm
Procedure, shortened: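 Human Factor VIIa (5 nmol/L) with human TF (10 nmol/L) in Tris-BSA buffer pH 7.4 containing 15 mmol/L CaCl2 and cephalin, with Spectrozyme FVIIa substrate. Reaction 40 min at room temperature; 4-nitroanilide read at 405 nm. IC50 by non-linear regression over 100 μmol/L–0.1 nmol/L.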

T1 sequence (P08709 213-466 limits assumed): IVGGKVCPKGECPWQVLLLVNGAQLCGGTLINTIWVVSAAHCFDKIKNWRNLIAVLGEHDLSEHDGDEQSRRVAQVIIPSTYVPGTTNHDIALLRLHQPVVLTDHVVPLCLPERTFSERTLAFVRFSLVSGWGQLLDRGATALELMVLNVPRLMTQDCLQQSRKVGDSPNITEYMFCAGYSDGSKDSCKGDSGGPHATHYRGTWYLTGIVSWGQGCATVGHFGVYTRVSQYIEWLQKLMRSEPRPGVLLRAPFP
T1 sequence (P08709 61-212 limits assumed): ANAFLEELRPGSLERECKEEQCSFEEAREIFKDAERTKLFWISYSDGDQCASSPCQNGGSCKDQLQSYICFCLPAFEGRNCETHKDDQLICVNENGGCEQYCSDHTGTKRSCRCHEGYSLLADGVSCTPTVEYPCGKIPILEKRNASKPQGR
T1 sequence (P13726 33-295 partner): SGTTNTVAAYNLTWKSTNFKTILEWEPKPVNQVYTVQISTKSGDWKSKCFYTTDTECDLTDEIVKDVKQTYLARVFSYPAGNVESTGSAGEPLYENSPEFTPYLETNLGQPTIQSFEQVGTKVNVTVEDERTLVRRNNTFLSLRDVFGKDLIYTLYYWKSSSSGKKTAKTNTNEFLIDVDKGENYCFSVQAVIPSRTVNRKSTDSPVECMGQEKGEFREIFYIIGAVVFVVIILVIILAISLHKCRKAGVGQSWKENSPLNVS

| SMILES | IC50 [nM] |
| --- | --- |
| COc1cc(C(Nc2ccc(C(=N)N)cc2)c2nn(-c3ncccn3)c(=O)[nH]2)c(F)c2c1OCOC2 (racemic) [Example 32, (R) and (S)-4-{[(5-fluoro-8-methoxy-4H-benzo[1,3]dioxin-6-yl)-(5-oxo-1-pyrimidin-2-yl-4,5-dihydro-1H-[1,2,4]triazol-3-yl)methyl]amino}benzamidine acetate] | 11.6 |
| COc1cc(C(Nc2ccc(C(=N)N)cc2)c2nn(-c3ncccn3)c(=O)[nH]2)c(F)c(OC)c1OC (racemic) [Example 67, (R) and (S)-4-{[(2-fluoro-3,4,5-trimethoxyphenyl)-(5-oxo-1-pyrimidin-2-yl-4,5-dihydro-1H-[1,2,4]triazol-3-yl)methyl]amino}benzamidine acetate] | 4.5 |
| C=Cc1cc(OCCO)cc(C(Nc2ccc(C(=N)N)cc2)c2nn(-c3ncccn3)c(=O)[nH]2)c1 (racemic) [Example 46, (R) and (S)-4-({[3-(2-hydroxyethoxy)-5-vinylphenyl]-(5-oxo-1-pyrimidin-2-yl-4,5-dihydro-1H-[1,2,4]triazol-3-yl)methyl}amino)benzamidine acetate] | 3.8 |
| COc1cc(OCCF)cc(C(Nc2ccc(C(=N)N)cc2)c2nn(-c3cccnn3)c(=O)[nH]2)c1 (racemic) [Example 64, (R) and (S)-4-({[3-(2-fluoroethoxy)-5-methoxyphenyl]-(5-oxo-1-pyridazin-3-yl-4,5-dihydro-1H-[1,2,4]triazol-3-yl)methyl}amino)benzamidine acetate] | 4.2 |
| CCc1cc(OCC(=O)N(C)C)c(F)c(C(Nc2ccc(C(=N)N)cc2)c2nn(-c3ccccc3NC(=O)OC)c(=O)[nH]2)c1 (stereo not shown) [Example 135, (2-{3-[(4-carbamimidoylphenylamino)-(3-dimethylcarbamoylmethoxy-5-ethyl-2-fluorophenyl)methyl]-5-oxo-4,5-dihydro-1H-[1,2,4]triazol-1-yl}phenyl)carbamic acid methyl ester trifluoroacetate] | 8.6 |
| COc1cc(F)c(C(Nc2ccc(C(=N)N)c(F)c2)c2nn(-c3ncccn3)c(=O)[nH]2)cc1OC (racemic) [Example 143, (R) and (S)-2-fluoro-4-{[(2-fluoro-4,5-dimethoxyphenyl)-(5-oxo-1-pyrimidin-2-yl-4,5-dihydro-1H-[1,2,4]triazol-3-yl)methyl]amino}benzamidine acetate] | 23 |
| COc1cc(C(Nc2ccc(C(=N)N)cc2)c2nn(-c3ncccn3)c(=O)[nH]2)cc2c1OCOC2 (racemic) [Example 21, (R) and (S)-4-{[(8-methoxy-4H-benzo[1,3]dioxin-6-yl)-(5-oxo-1-pyrimidin-2-yl-4,5-dihydro-1H-[1,2,4]triazol-3-yl)methyl]amino}benzamidine acetate] | 10.6 |
| COc1cc(C(Nc2ccc(C(=N)N)cc2)c2nn(-c3ncccn3)c(=O)[nH]2)cc(OC)c1OC (stereo not shown) [Example 86, 4-{[(5-oxo-1-pyrimidin-2-yl-4,5-dihydro-1H-[1,2,4]triazol-3-yl)-(3,4,5-trimethoxyphenyl)methyl]amino}benzamidine acetate] | 51.7 |
| COc1cc(CF)cc(C(Nc2ccc(C(=N)N)cc2)c2nn(-c3ncccn3)c(=O)[nH]2)c1 (stereo not shown) [Example 11, 4-{[(3-fluoromethyl-5-methoxyphenyl)-(5-oxo-1-pyrimidin-2-yl-4,5-dihydro-1H-[1,2,4]triazol-3-yl)methyl]amino}benzamidine acetate] | 29.7 |
| COc1cc(C(Nc2ccc(C(=N)N)c(F)c2)c2nn(-c3ccccc3C(=O)O)c(=O)[nH]2)cc(C)n1 (racemic) [Example 173, 2-{3-[(R) and (S)-(4-carbamimidoyl-3-fluorophenylamino)-(2-methoxy-6-methylpyridin-4-yl)methyl]-5-oxo-4,5-dihydro-[1,2,4]triazol-1-yl}benzoic acid] | 14.1 |
| CCOc1cc(C(Nc2ccc(C(=N)N)cc2)c2nn(-c3ncccc3C)c(=O)[nH]2)ccc1OCCOC (stereo not shown) [Example 128, 4-({[3-ethoxy-4-(2-methoxyethoxy)phenyl]-[1-(3-methylpyridin-2-yl)-5-oxo-4,5-dihydro-1H-[1,2,4]triazol-3-yl]methyl}amino)benzamidine acetate] | 9.9 |

The remaining lines, values ahead:

| IC50 [nM] | SMILES |
| --- | --- |
| 3.4 | COc1cc(C(Nc2ccc(C(=N)N)cc2)c2nn(-c3ccsc3C(=O)O)c(=O)[nH]2)c(F)c2c1OCC2 (racemic) [Example 215, (R) and (S)-3-{3-[(4-Carbamimidoylphenylamino)-(4-fluoro-7-methoxy-2,3-dihydrobenzofuran-5-yl)methyl]-5-oxo-4,5-dihydro[1,2,4]triazol-1-yl}thiophene-2-carboxylic acid] |
| 3.3 | COc1cc(F)c(C(Nc2ccc(C(=N)N)cc2)c2nn(-c3ccsc3C(=O)O)c(=O)[nH]2)cc1OC (racemic) [Example 171, (R) and (S)-3-{3-[(4-carbamimidoylphenylamino)-(2-fluoro-4,5-dimethoxyphenyl)methyl]-5-oxo-4,5-dihydro[1,2,4]triazol-1-yl}thiophene-2-carboxylic acid] |
| 6.7 | CCOc1cc(OCCF)c(F)c(C(Nc2ccc(C(=N)N)cc2)c2nn(-c3ncccn3)c(=O)[nH]2)c1 (racemic) [Example 68, (R) and (S)-4-({[2-fluoro-3-(2-fluoroethoxy)-5-ethoxyphenyl]-(5-oxo-1-pyrimidin-2-yl-4,5-dihydro-1H-[1,2,4]triazol-3-yl)methyl}amino)benzamidine acetate] |
| 16.5 | COc1cc(F)c(C(Nc2ccc(C(=N)N)cc2)c2nn(-c3ncsc3C(=O)O)c(=O)[nH]2)cc1OC (racemic) [Example 162, (R) and (S)-4-{3-[(4-carbamimidoylphenylamino)-(2-fluoro-4,5-dimethoxyphenyl)methyl]-5-oxo-4,5-dihydro[1,2,4]triazol-1-yl}thiazole-5-carboxylic acid] |
| 7.8 | COc1cc(OCCO)c(F)c(C(Nc2ccc(C(=N)N)cc2)c2nn(-c3ncccc3N)c(=O)[nH]2)c1 (racemic) [Example 201, 4-({(R) and (S)-[1-(3-Aminopyridin-2-yl)-5-oxo-4,5-dihydro-1H-[1,2,4]triazol-3-yl]-[2-fluoro-3-(2-hydroxyethoxy)-5-methoxyphenyl]methyl}amino)benzamidine acetate] |
| 19.6 | COc1cc(OCCCO)c(F)c(C(Nc2ccc(C(=N)N)cc2)c2nn(-c3[nH]ncc3C(=O)O)c(=O)[nH]2)c1 (single isomer, unassigned) [Example 198, (R) or (S)-5-(3-{(4-Carbamimidoylphenylamino)-[2-fluoro-3-(3-hydroxypropoxy)-5-methoxyphenyl]methyl}-5-oxo-4,5-dihydro-[1,2,4]triazol-1-yl)-1H-pyrazole-4-carboxylic acid acetate] |
| 27.6 | COc1cc(OCCCO)c(F)c(C(Nc2ccc(C(=N)N)cc2)c2nn(-c3[nH]ncc3C(=O)O)c(=O)[nH]2)c1 (stereo not shown) [Example 177, 5-(3-{(4-carbamimidoylphenylamino)-[2-fluoro-3-(3-hydroxypropoxy)-5-methoxyphenyl]methyl}-5-oxo-4,5-dihydro-[1,2,4]triazol-1-yl)-1H-pyrazole-4-carboxylic acid acetate] |
| 5.1 | COc1cc(OCCCO)cc(C(Nc2ccc(C(=N)N)cc2)c2nn(-c3ncccn3)c(=O)[nH]2)c1 (racemic) [Example 158, 4-({[3-(3-hydroxypropoxy)-5-methoxyphenyl]-(5-oxo-1-pyrimidin-2-yl-4,5-dihydro-1H-[1,2,4]triazol-3-yl)methyl}amino)benzamidine] |
